SMILES strings stand for the structures.

The nature of series [1]: MTT cytotoxicity assay, normal cell line HEK 293. In kind it is cell-based. The following applies: human, HEK 293 cells, HEK 293 normal cells, 48 h exposure. As to the method:
(§1) The cytotoxicity activity of all the conjugates (6aa–6df) was evaluated in vitro by MTT assay against two different breast cancer cell lines 4T1 (murine) and MCF-7 (human) and HEK 293 (human) as normal cell line. DTX was used as positive control. Cells were grown in DMEM supplemented with 10% FBS and 1% antibiotic solution and incubated at 5% CO2 and 37 °C for 24 h. The stock solutions of all the conjugates were prepared in DMSO and diluted for further use. Briefly, 5 × 10^3 cells/well were seeded in 96-well cell culture plates and allowed to adhere for 24 h. Cell inhibition (%) was determined after 48 h exposure to the compounds at 1–25 μM concentration. After 48 h, MTT assay was performed and the yellow tetrazolium salt (MTT) was reduced in metabolically active cells to form insoluble purple formazan crystals, which were solubilized by the addition of DMSO. The optical density (OD) was recorded at 560 nm and 630 nm as reference wavelength. Percentage cell inhibition was determined by comparison with untreated cells.
(Formazan colour is commonly taken as a measure of viable cells.)

The subject of series [2] is 4T1 (mouse mammary carcinoma) cells. Description: MTT cytotoxicity assay, 4T1. It counts as cell-based. The following applies: for IC50: 48 h; for viability at 10 µM: 48 h exposure, read-out: % Cell Viability at 10 µM 4T1. As to the method:
as §1

The subject of a further series is 4T1 cells. Description: Annexin V/PI apoptosis assay by flow cytometry, 4T1. It counts as cell-based, mouse. Particulars: 6af at 12.84 µM, 6cf at 8.76 µM (respective IC50), 48 h. As to the method: (§2) The extent of apoptosis induced by compounds 6af and 6cf in MCF-7 and 4T1 cells was quantified by flow cytometry according to the manufacturer’s protocol. Briefly, cells were seeded in a 6-well plate at a cell density of 1 × 10^6 cells/well. After 24 h, the media was discarded and cells were treated with fresh media containing compounds 6af and 6cf at their respective IC50 concentrations for 48 h. After treatment, cells were trypsinized, harvested in PBS and collected by centrifugation for 5 min at 2000 rpm. Cells were then resuspended in 1X binding buffer and stained with FITC-labeled Annexin V Alexa Fluor 488 (5 μL) and propidium iodide (10 μL). Cells were analyzed using flow cytometer (Beckman Coulter), and data were analyzed with CytExpert software.
On the technique in general: A flow cytometer gives signals particle by particle.

The test system of series [3] is MCF-7 (human breast adenocarcinoma) cells. Nature of the series: MTT cytotoxicity assay, MCF-7. In kind it is cell-based. Particulars: for viability at 10 µM: MCF7, 10 µM, 48 h exposure, read-out: % Cell Viability at 10 µM MCF-7; for IC50: 48 h. As to the method: as §1
The next series deals with MCF-7 cells. Description: Annexin V/PI apoptosis assay by flow cytometry, MCF-7. It counts as cell-based, human. Particulars: 6af at 2.61 µM, 6cf at 5.71 µM (respective IC50), 48 h. As to the method:
as §2

The test system of series [4] is Human cervix cancer cell line (HeLa). Also noted: method as in PMID 23884119, PMID 25476168, PMID 30220830, PMID 23584541, PMID 28158265. The following applies: literature example of Figure 1, cited from earlier work.

In general, melting point refers to the temperature of the solid-liquid transition. A word on the viability: it is the share of living cells, or the viability signal relative to a control. As a reminder, the IC50 is the concentration needed to halve the response being measured. Consider `C[C@H](CCC(=O)OCc1cn(CC(=O)c2ccc(Br)cc2)nn1)C1CCC2C3C(C[C@H](O)[C@@]21C)[C@@]1(C)CC[C@@H](O)CC1C[C@H]3O` (stereo partly drawn) [6af, (1-(2-(4-Bromophenyl)-2-oxoethyl)-1H-1,2,3-triazol-4-yl)methyl (4R)-4-((3R,7R,10S,12S,13R)-3,7,12-trihydroxy-10,13-dimethylhexadecahydro-1H-cyclopenta[a]phenanthren-17-yl)pentanoate], for which the melting point was 159 to 160 °C. This compound also displayed a viability at 48 h, 10 µM in series [1] of over 86%. Besides, in series [2], half-maximal inhibition (IC50) required 12.8 ± 1.8 µM. Further, in series [2] (Mus musculus), the viability at 10 µM was determined as 55.9% and the IC50 was under 19 µM. The “total apoptosis in 4T1 cells” value in the series on 4T1 cells turned out to be 19.02%. In addition, the viability at 10 µM in series [3] (Homo sapiens) was found to be 26.5%. In addition, the “apoptosis (total) in MCF-7 cells” value with MCF-7 cells is 33.89%.
Consider `Cc1cccc(-c2cn(CC3CC4C5CC=C6CC(O)CCC6(C)C5CCC4(C)C3O)nn2)c1` (centres unmarked) [II], for which, in series [4], the “% Growth Inhibition at 30 μM HeLa” value is given as 96.9%.
For the compound `COc1ccc2c(c1)CCC1C2CCC2(C)C(O)C(n3cc(-c4ccc(C(C)(C)C)cc4)nn3)CC12` (centres unmarked) [IV], the IC50 in series [4] was 5.08 µM.
Consider `C[C@H](CCC(=O)NCc1cn(CC(=O)c2ccc(F)cc2)nn1)C1CCC2C3CCC4C[C@H](O)CC[C@]4(C)C3C[C@H](O)[C@@]21C` (stereo partly drawn) [6dd, (4R)-4-((3R,10S,12S,13R)-3,12-Dihydroxy-10,13-dimethylhexadecahydro-1H-cyclopenta[a]phenanthren-17-yl)-N-((1-(2-(4-fluorophenyl)-2-oxoethyl)-1H-1,2,3-triazol-4-yl)methyl)pentanamide], for which the melting point was 126 to 127 °C. In addition, the viability at 48 h, 10 µM in series [1] is 81.6%. Moreover, the viability at 10 µM in series [2] (Mus musculus) was 89.9%. In addition, the viability at 10 µM in series [3] (Homo sapiens) is 73.8%.
In the case of `C[C@H](CCC(=O)OCc1cn(CC(=O)c2ccccc2)nn1)C1CCC2C3CCC4C[C@H](O)CC[C@]4(C)C3C[C@H](O)[C@@]21C` (stereo partly drawn) [6ba, (1-(2-Oxo-2-phenylethyl)-1H-1,2,3-triazol-4-yl)methyl (4R)-4-((3R,10S,12S,13R)-3,12-dihydroxy-10,13-dimethylhexadecahydro-1H-cyclopenta[a]phenanthren-17-yl)pentanoate], the melting point was in the range of 143 to 144 °C. The same compound had a viability at 48 h, 10 µM in series [1] of 88.9%. Further, the viability at 10 µM in series [2] (Mus musculus) was found to be 97.8%. In series [3] (Homo sapiens), the viability at 10 µM stood at 91.9%.
Take `CC(C)CCCC(C)C1CCC2C3CCC4CC(=O)C(n5cc(-c6ccccn6)nn5)CC4(C)C3CCC12C` (centres unmarked) [III]: the “% Growth Inhibition at 30 μM HeLa” value in series [4] is 43.5%.
`C[C@H](CCC(=O)OCc1cn(CC(=O)c2ccc(F)cc2)nn1)C1CCC2C3CCC4C[C@H](O)CC[C@]4(C)C3C[C@H](O)[C@@]21C` (stereo partly drawn) [6bd, (1-(2-(4-Fluorophenyl)-2-oxoethyl)-1H-1,2,3-triazol-4-yl)methyl (4R)-4-((3R,10S,12S,13R)-3,12-dihydroxy-10,13-dimethylhexadecahydro-1H-cyclopenta[a]phenanthren-17-yl)pentanoate] registered a melting point of 127 to 128 °C. Besides, the viability at 48 h, 10 µM in series [1] stood at 89.4%. Further, the viability at 10 µM in series [2] (Mus musculus) came out at 52.4%. For the same compound, the viability at 10 µM in series [3] (Homo sapiens) was found to be 79.6%.
In turn, `C[C@H](CCC(=O)OCc1cn(CC(=O)c2ccc(Br)cc2)nn1)C1CCC2C3CCC4C[C@H](O)CC[C@]4(C)C3C[C@H](O)[C@@]21C` (stereo partly drawn) [6bf, (1-(2-(4-Bromophenyl)-2-oxoethyl)-1H-1,2,3-triazol-4-yl)methyl (4R)-4-((3R,10S,12S,13R)-3,12-dihydroxy-10,13-dimethylhexadecahydro-1H-cyclopenta[a]phenanthren-17-yl)pentanoate] displayed a melting point of 176 to 177 °C. The compound also yielded a viability at 48 h, 10 µM in series [1] of 86.8%. In series [2], this compound returned an IC50 of 9.68 ± 1.59 µM. Besides, in series [2] (Mus musculus), the viability at 10 µM was found to be 60.9% and the IC50 was under 19 µM. In series [3], this compound showed an IC50 of 18.3 ± 1.48 µM. The viability at 10 µM in series [3] (Homo sapiens) amounted to 44.4%. This compound also registered an IC50 in series [3] (Homo sapiens, MCF7, 48 h) of under 19 µM.
The compound `Cc1ccc(C(=O)Cn2cc(CNC(=O)CC[C@@H](C)C3CCC4C5C(C[C@H](O)[C@@]43C)[C@@]3(C)CC[C@@H](O)CC3C[C@H]5O)nn2)cc1` (stereo partly drawn) [6cb, (4R)-N-((1-(2-Oxo-2-(p-tolyl)ethyl)-1H-1,2,3-triazol-4-yl)methyl)-4-((3R,7R,10S,12S,13R)-3,7,12-trihydroxy-10,13-dimethylhexadecahydro-1H-cyclopenta[a]phenanthren-17-yl)pentanamide] came in with a melting point of 129 to 131 °C. The same compound showed a viability at 48 h, 10 µM in series [1] of 86%. The viability at 10 µM in series [2] (Mus musculus) is 96.7%. Further, in series [3] (Homo sapiens), the viability at 10 µM came to 61.9%.
Taken in the same sequence, the figures for `C[C@H](CCC(=O)NCc1cn(CC(=O)c2ccc(Cl)cc2)nn1)C1CCC2C3C(C[C@H](O)[C@@]21C)[C@@]1(C)CC[C@@H](O)CC1C[C@H]3O` (stereo partly drawn) [6ce, (4R)-N-((1-(2-(4-Chlorophenyl)-2-oxoethyl)-1H-1,2,3-triazol-4-yl)methyl)-4-((3R,7R,10S,12S,13R)-3,7,12-trihydroxy-10,13-dimethylhexadecahydro-1H-cyclopenta[a]phenanthren-17-yl)pentanamide] were 154 to 155 °C, 92.7%, 50.6% and 69.2%.
Turning to `COc1ccc(C(=O)Cn2cc(CNC(=O)CC[C@@H](C)C3CCC4C5CCC6C[C@H](O)CC[C@]6(C)C5C[C@H](O)[C@@]43C)nn2)cc1` (stereo partly drawn) [6dc, (4R)-4-((3R,10S,12S,13R)-3,12-Dihydroxy-10,13-dimethylhexadecahydro-1H-cyclopenta[a]phenanthren-17-yl)-N-((1-(2-(4-methoxyphenyl)-2-oxoethyl)-1H-1,2,3-triazol-4-yl)methyl)pentanamide], the melting point was 114 to 115 °C. Moreover, the viability at 48 h, 10 µM in series [1] was determined as 86.5%. Also, the viability at 10 µM in series [2] (Mus musculus) was determined as 64.9%. For the same compound, the viability at 10 µM in series [3] (Homo sapiens) came out at 68.5%.
Taken in the same sequence, the figures for `COc1ccc(C(=O)Cn2cc(COC(=O)CC[C@@H](C)C3CCC4C5C(C[C@H](O)[C@@]43C)[C@@]3(C)CC[C@@H](O)CC3C[C@H]5O)nn2)cc1` (stereo partly drawn) [6ac, (1-(2-(4-Methoxyphenyl)-2-oxoethyl)-1H-1,2,3-triazol-4-yl)methyl (4R)-4-((3R,7R,10S,12S,13R)-3,7,12-trihydroxy-10,13-dimethylhexadecahydro-1H-cyclopenta[a]phenanthren-17-yl)pentanoate] were 176 to 177 °C, 87.9%, 80% and 55.6%.

The record behind these values is article PMC8510344, “Bile-Acid-Appended Triazolyl Aryl Ketones: Design, Synthesis, In Vitro Anticancer Activity and Pharmacokinetics in Rats” (Molecules, 2021).
